Experiments:
Assay type in all cases: in vivo
[1] = test system: crabgrass (Digitaria sanguinalis); assay: Test B pre/postemergence
From the text: (§1) Seeds selected from barnyardgrass (Echinochloa crus-galli), Surinam grass (Brachiaria decumbens), cocklebur (Xanthium strumarium), corn (Zea mays), crabgrass (Digitaria sanguinalis), giant foxtail (Setaria faberii), lambsquarters (Chenopodium album), morningglory (Ipomoea coccinea), pigweed (Amaranthus retroflexus), velvetleaf (Abutilon theophrasti), and wheat (Triticum aestivum) were planted and treated preemergence with test chemicals formulated in a non-phytotoxic solvent mixture which included a surfactant.
(§2) At the same time, plants selected from these crop and weed species and also blackgrass (Alopecurus myosuroides) and wild oat (Avena fatua) were treated with postemergence applications of test chemicals formulated in the same manner. Plants ranged in height from 2 to 18 cm (1- to 4-leaf stage) for postemergence treatments. Plant species in the flooded paddy test consisted of rice (Oryza sativa), umbrella sedge (Cyperus difformis), duck salad (Heteranthera limosa) and barnyardgrass (Echinochloa crus-galli) grown to the 2-leaf stage for testing. Treated plants and controls were maintained in a greenhouse for 13 to 15 days, after which time all species were compared to controls and visually evaluated. Plant response ratings, summarized in Table B, are based on a scale of 0 to 100 where 0 is no effect and 100 is complete control. A dash (-) response means no test result.

[2] = test system: corn (Zea mays); assay: Test B pre/postemergence
From the text: as §1, §2

[3] = test system: velvetleaf (Abutilon theophrasti); assay: Test B pre/postemergence
From the text: as §1, §2

[4] = test system: lambsquarters (Chenopodium album); assay: Test B pre/postemergence; settings: Postemergence; for Lambsquarters plant response rating: 125 g ai/ha, scale 0 to 100 (0 no effect, 100 complete control); for Plant response rating, Lambsquarters: 500 g ai/ha, scale 0 to 100
From the text: as §1, §2

[5] = test system: giant foxtail (Setaria faberii); assay: Test B pre/postemergence
From the text: as §1, §2

[6] = test system: wheat (Triticum aestivum); assay: Test B pre/postemergence
From the text: as §1, §2

[7] = test system: barnyardgrass (Echinochloa crus-galli); assay: Test B pre/postemergence
From the text: as §1, §2

[8] = test system: morningglory (Ipomoea coccinea); assay: Test B pre/postemergence
From the text: as §1, §2

[9] = test system: pigweed (Amaranthus retroflexus); assay: Test B pre/postemergence
From the text: as §1, §2

[10] = test system: Surinam grass (Brachiaria decumbens); assay: Test B pre/postemergence
From the text: as §1, §2

[11] = test system: cocklebur (Xanthium strumarium); assay: Test B pre/postemergence
From the text: as §1, §2

[12] = test system: wild oat (Avena fatua); assay: Test B postemergence; settings: for Oat, Wild plant response rating: 125 g ai/ha, scale 0 to 100 (0 no effect, 100 complete control); for Plant response rating, Oat, Wild: 500 g ai/ha, scale 0 to 100
From the text: as §1, §2

[13] = test system: blackgrass (Alopecurus myosuroides); assay: Test B postemergence; settings: for Blackgrass plant response rating: 125 g ai/ha, scale 0 to 100 (0 no effect, 100 complete control); for Plant response rating, Blackgrass: 500 g ai/ha, scale 0 to 100
From the text: as §1, §2

[14] = test system: crabgrass (Digitaria sanguinalis); assay: Test A pre/postemergence
In short: (§3)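 Visual injury scored 0–100 (0 = no effect, 100 = complete control) against untreated controls after about ten days in the greenhouse. Compounds, formulated in non-phytotoxic solvent plus surfactant, were applied preemergence as a directed soil spray and postemergence at the 1- to 2-leaf stage (2–10 cm).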

[15] = test system: velvetleaf (Abutilon theophrasti); assay: Test A pre/postemergence
In short: as §3

[16] = test system: giant foxtail (Setaria faberi); assay: Test A pre/postemergence
In short: as §3

[17] = test system: morningglory (Ipomoea spp.); assay: Test A pre/postemergence
In short: as §3

[18] = test system: barnyardgrass (Echinochloa crus-galli); assay: Test A pre/postemergence
In short: as §3

[19] = test system: redroot pigweed (Amaranthus retroflexus); assay: Test A pre/postemergence
In short: as §3

[20] = Postemergence, 125 g ai/ha, scale 0 to 100 (0 no effect, 100 complete control)
[21] = Postemergence, 500 g ai/ha, scale 0 to 100
[22] = Preemergence, 125 g ai/ha, scale 0 to 100 (0 no effect, 100 complete control)
[23] = Preemergence, 500 g ai/ha, scale 0 to 100 (0 no effect, 100 complete control)
[24] = Postemergence, 125 g ai/ha, 0 to 100 scale (0 no effect, 100 complete control)
[25] = Postemergence, 500 g ai/ha, 0 to 100 scale (0 no effect, 100 complete control)
[26] = Preemergence, 125 g ai/ha, 0 to 100 scale where 0 is no effect and 100 is complete control, approximately ten days
[27] = Preemergence, 500 g ai/ha, 0 to 100 scale where 0 is no effect and 100 is complete control, approximately ten days

## CCOC(=O)c1nc(C2CC2)nc(NNC(C)=O)c1Br [Compound 126]
[1]; [20]
  Crabgrass plant response rating: 0
[1]; [21]
  Plant response rating, Crabgrass: 20
[1]; [22]
  Plant response rating, Crabgrass: 80
[1]; [23]
  Plant response rating, Crabgrass: 100
[2]; [20]
  Corn plant response rating: 0
[2]; [21]
  Plant response rating, Corn: 10
[2]; [22]
  Plant response rating, Corn: 0
[2]; [23]
  Plant response rating, Corn: 0
[3]; [20]
  Velvetleaf plant response rating: 10
[3]; [21]
  Plant response rating, Velvetleaf: 20
[3]; [22]
  Plant response rating, Velvetleaf: 10
[3]; [23]
  Plant response rating, Velvetleaf: 20
[4]
  Lambsquarters plant response rating: 30
  Plant response rating, Lambsquarters: 40
[5]; [20]
  Foxtail, Giant plant response rating: 0
[5]; [21]
  Plant response rating, Foxtail, Giant: 0
[5]; [22]
  Plant response rating, Foxtail, Giant: 0
[5]; [23]
  Plant response rating, Foxtail, Giant: 0
[6]; [20]
  Wheat plant response rating: 0
[6]; [21]
  Plant response rating, Wheat: 0
[6]; [22]
  Plant response rating, Wheat: 0
[6]; [23]
  Plant response rating, Wheat: 0
[7]; [20]
  Barnyardgrass plant response rating: 0
[7]; [21]
  Plant response rating, Barnyardgrass: 0
[7]; [22]
  Plant response rating, Barnyardgrass: 0
[7]; [23]
  Plant response rating, Barnyardgrass: 0
[8]; [20]
  Morningglory plant response rating: 30
[8]; [21]
  Plant response rating, Morningglory: 60
[8]; [22]
  Plant response rating, Morningglory: 0
[8]; [23]
  Plant response rating, Morningglory: 70
[9]; [20]
  Pigweed plant response rating: 0
[9]; [21]
  Plant response rating, Pigweed: 30
[9]; [22]
  Plant response rating, Pigweed: 20
[9]; [23]
  Plant response rating, Pigweed: 80
[10]; [20]
  Surinam Grass plant response rating: 0
[10]; [21]
  Plant response rating, Surinam Grass: 70
[10]; [22]
  Plant response rating, Surinam Grass: 0
[10]; [23]
  Plant response rating, Surinam Grass: 20
[11]; [20]
  Cocklebur plant response rating: 0
[11]; [21]
  Plant response rating, Cocklebur: 0
[11]; [22]
  Plant response rating, Cocklebur: 0
[11]; [23]
  Plant response rating, Cocklebur: 90
[12]
  Oat, Wild plant response rating: 0
  Plant response rating, Oat, Wild: 20
[13]
  Blackgrass plant response rating: 0
  Plant response rating, Blackgrass: 0

## CCOC(=O)c1nc(C2CC2)nc(NOCc2ccccc2)c1Br [Compound 54]
[1]; [20]
  Crabgrass plant response rating: 20
[1]; [21]
  Plant response rating, Crabgrass: 30
[1]; [22]
  Plant response rating, Crabgrass: 0
[1]; [23]
  Plant response rating, Crabgrass: 0
[2]; [20]
  Corn plant response rating: 0
[2]; [21]
  Plant response rating, Corn: 20
[2]; [22]
  Plant response rating, Corn: 0
[2]; [23]
  Plant response rating, Corn: 0
[3]; [20]
  Velvetleaf plant response rating: 50
[3]; [21]
  Plant response rating, Velvetleaf: 60
[3]; [22]
  Plant response rating, Velvetleaf: 10
[3]; [23]
  Plant response rating, Velvetleaf: 80
[4]
  Lambsquarters plant response rating: 80
  Plant response rating, Lambsquarters: 90
[5]; [20]
  Foxtail, Giant plant response rating: 20
[5]; [21]
  Plant response rating, Foxtail, Giant: 30
[5]; [22]
  Plant response rating, Foxtail, Giant: 0
[5]; [23]
  Plant response rating, Foxtail, Giant: 0
[6]; [20]
  Wheat plant response rating: 0
[6]; [21]
  Plant response rating, Wheat: 20
[6]; [22]
  Plant response rating, Wheat: 0
[6]; [23]
  Plant response rating, Wheat: 0
[7]; [20]
  Barnyardgrass plant response rating: 0
[7]; [21]
  Plant response rating, Barnyardgrass: 70
[7]; [22]
  Plant response rating, Barnyardgrass: 0
[7]; [23]
  Plant response rating, Barnyardgrass: 40
[8]; [20]
  Morningglory plant response rating: 80
[8]; [21]
  Plant response rating, Morningglory: 90
[8]; [22]
  Plant response rating, Morningglory: 0
[9]; [20]
  Pigweed plant response rating: 80
[9]; [21]
  Plant response rating, Pigweed: 90
[9]; [22]
  Plant response rating, Pigweed: 100
[9]; [23]
  Plant response rating, Pigweed: 100
[10]; [20]
  Surinam Grass plant response rating: 0
[10]; [21]
  Plant response rating, Surinam Grass: 0
[10]; [22]
  Plant response rating, Surinam Grass: 0
[10]; [23]
  Plant response rating, Surinam Grass: 0
[11]; [20]
  Cocklebur plant response rating: 20
[11]; [21]
  Plant response rating, Cocklebur: 80
[11]; [22]
  Plant response rating, Cocklebur: 50
[11]; [23]
  Plant response rating, Cocklebur: 90
[12]
  Oat, Wild plant response rating: 0
  Plant response rating, Oat, Wild: 40
[13]
  Blackgrass plant response rating: 40
  Plant response rating, Blackgrass: 40

## Nc1nc(C2CC2)nc(C(=O)OCCCO)c1Cl [Compound 143]
[14]; [24]
  Plant response rating, Crabgrass: 5
[14]; [25]
  Plant response rating, Crabgrass: 60
[14]; [26]
  Plant response rating, Crabgrass: 70
[14]; [27]
  Plant response rating, Crabgrass: 95
[15]; [24]
  Plant response rating, Velvetleaf: 75
[15]; [25]
  Plant response rating, Velvetleaf: 95
[15]; [26]
  Plant response rating, Velvetleaf: 90
[15]; [27]
  Plant response rating, Velvetleaf: 95
[16]; [24]
  Plant response rating, Foxtail, Giant: 25
[16]; [25]
  Plant response rating, Foxtail, Giant: 80
[16]; [26]
  Plant response rating, Foxtail, Giant: 35
[16]; [27]
  Plant response rating, Foxtail, Giant: 75
[17]; [24]
  Plant response rating, Morningglory: 90
[17]; [25]
  Plant response rating, Morningglory: 90
[17]; [26]
  Plant response rating, Morningglory: 90
[17]; [27]
  Plant response rating, Morningglory: 100
[18]; [24]
  Plant response rating, Barnyardgrass: 55
[18]; [25]
  Plant response rating, Barnyardgrass: 75
[18]; [26]
  Plant response rating, Barnyardgrass: 65
[18]; [27]
  Plant response rating, Barnyardgrass: 85
[19]; [24]
  Plant response rating, Pigweed: 70
[19]; [25]
  Plant response rating, Pigweed: 90
[19]; [26]
  Plant response rating, Pigweed: 65
[19]; [27]
  Plant response rating, Pigweed: 95

## Cc1ccc(-c2nc(N)c(Cl)c(C(=O)O)n2)cc1F [Compound 87]
[14]; [24]
  Plant response rating, Crabgrass: 0
[14]; [25]
  Plant response rating, Crabgrass: 10
[14]; [26]
  Plant response rating, Crabgrass: 10
[14]; [27]
  Plant response rating, Crabgrass: 75
[15]; [24]
  Plant response rating, Velvetleaf: 90
[15]; [25]
  Plant response rating, Velvetleaf: 95
[15]; [26]
  Plant response rating, Velvetleaf: 25
[15]; [27]
  Plant response rating, Velvetleaf: 95
[16]; [24]
  Plant response rating, Foxtail, Giant: 0
[16]; [25]
  Plant response rating, Foxtail, Giant: 30
[16]; [26]
  Plant response rating, Foxtail, Giant: 0
[16]; [27]
  Plant response rating, Foxtail, Giant: 0
[17]; [24]
  Plant response rating, Morningglory: 0
[17]; [25]
  Plant response rating, Morningglory: 15
[17]; [26]
  Plant response rating, Morningglory: 0
[17]; [27]
  Plant response rating, Morningglory: 20
[18]; [24]
  Plant response rating, Barnyardgrass: 50
[18]; [25]
  Plant response rating, Barnyardgrass: 90
[18]; [26]
  Plant response rating, Barnyardgrass: 0
[18]; [27]
  Plant response rating, Barnyardgrass: 20
[19]; [24]
  Plant response rating, Pigweed: 55
[19]; [25]
  Plant response rating, Pigweed: 90
[19]; [26]
  Plant response rating, Pigweed: 85
[19]; [27]
  Plant response rating, Pigweed: 100

## NC(=O)c1nc(-c2ccc(Br)cc2)nc(N)c1Br [Compound 130]
[14]; [24]
  Plant response rating, Crabgrass: 0
[14]; [25]
  Plant response rating, Crabgrass: 0
[14]; [26]
  Plant response rating, Crabgrass: 0
[14]; [27]
  Plant response rating, Crabgrass: 0
[15]; [24]
  Plant response rating, Velvetleaf: 0
[15]; [25]
  Plant response rating, Velvetleaf: 30
[15]; [26]
  Plant response rating, Velvetleaf: 0
[15]; [27]
  Plant response rating, Velvetleaf: 0
[16]; [24]
  Plant response rating, Foxtail, Giant: 0
[16]; [25]
  Plant response rating, Foxtail, Giant: 0
[16]; [26]
  Plant response rating, Foxtail, Giant: 0
[16]; [27]
  Plant response rating, Foxtail, Giant: 0
[17]; [24]
  Plant response rating, Morningglory: 0
[17]; [25]
  Plant response rating, Morningglory: 0
[17]; [26]
  Plant response rating, Morningglory: 0
[17]; [27]
  Plant response rating, Morningglory: 0
[18]; [24]
  Plant response rating, Barnyardgrass: 0
[18]; [25]
  Plant response rating, Barnyardgrass: 0
[18]; [26]
  Plant response rating, Barnyardgrass: 0
[18]; [27]
  Plant response rating, Barnyardgrass: 0
[19]; [24]
  Plant response rating, Pigweed: 0
[19]; [25]
  Plant response rating, Pigweed: 15
[19]; [26]
  Plant response rating, Pigweed: 0
[19]; [27]
  Plant response rating, Pigweed: 0
